Publication PMC8776995 (Frontiers in Chemistry, 2022)
Values joined by “and” are separate entries in the source; they are usually repeats but may differ in a detail not shown here. Equal values may be shown once.

Columns and labels:
[1] = test system: PC-9 cells; experiment: CCK-8 antiproliferation assay, PC-9; conditions: Homo sapiens, PC-9, 48 h, read-out: IC50 (μM) PC-9
[2] = test system: H1975 cells; experiment: CCK-8 antiproliferation assay, H1975
[3] = test system: A549 cells; experiment: CCK-8 antiproliferation assay, A549; conditions: for Inhibitory efficacy: A549 cells
[4] = molecular target: wild-type EGFR (Homo sapiens, UniProt P00533); experiment: EGFR kinase assay (ELISA); conditions: for A450: raw ELISA absorbance
wild-type EGFR, sequence (P00533 25-1210): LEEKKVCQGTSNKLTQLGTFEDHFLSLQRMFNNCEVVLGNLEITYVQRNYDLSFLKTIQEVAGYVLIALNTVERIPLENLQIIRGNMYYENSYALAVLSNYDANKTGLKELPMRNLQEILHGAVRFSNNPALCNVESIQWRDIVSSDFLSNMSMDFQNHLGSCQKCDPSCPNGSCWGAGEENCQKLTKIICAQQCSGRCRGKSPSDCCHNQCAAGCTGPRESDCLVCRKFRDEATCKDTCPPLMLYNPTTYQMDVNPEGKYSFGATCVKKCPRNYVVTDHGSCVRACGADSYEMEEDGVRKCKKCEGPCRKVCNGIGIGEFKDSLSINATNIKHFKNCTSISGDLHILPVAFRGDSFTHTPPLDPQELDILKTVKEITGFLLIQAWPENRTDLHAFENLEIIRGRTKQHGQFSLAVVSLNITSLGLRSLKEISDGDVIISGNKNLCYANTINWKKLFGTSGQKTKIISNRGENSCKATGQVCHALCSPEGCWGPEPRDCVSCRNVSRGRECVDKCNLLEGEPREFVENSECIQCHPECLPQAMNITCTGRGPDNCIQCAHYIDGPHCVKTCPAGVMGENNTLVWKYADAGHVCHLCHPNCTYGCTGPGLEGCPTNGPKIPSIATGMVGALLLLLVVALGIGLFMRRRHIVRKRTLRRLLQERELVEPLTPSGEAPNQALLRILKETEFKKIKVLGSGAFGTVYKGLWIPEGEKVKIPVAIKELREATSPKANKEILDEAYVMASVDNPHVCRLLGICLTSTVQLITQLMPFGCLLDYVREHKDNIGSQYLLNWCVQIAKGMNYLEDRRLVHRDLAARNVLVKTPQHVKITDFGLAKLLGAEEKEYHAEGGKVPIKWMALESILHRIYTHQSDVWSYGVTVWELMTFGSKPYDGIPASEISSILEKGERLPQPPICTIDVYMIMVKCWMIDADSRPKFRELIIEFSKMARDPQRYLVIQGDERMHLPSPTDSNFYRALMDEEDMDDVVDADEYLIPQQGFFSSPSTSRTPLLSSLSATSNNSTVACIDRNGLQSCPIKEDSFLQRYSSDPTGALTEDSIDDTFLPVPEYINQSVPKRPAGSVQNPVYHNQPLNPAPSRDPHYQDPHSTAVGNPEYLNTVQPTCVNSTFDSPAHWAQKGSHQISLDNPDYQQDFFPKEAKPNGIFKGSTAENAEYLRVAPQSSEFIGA

[5] = test system: H460 cells; experiment: CCK-8 antiproliferation assay, H460; conditions: for Inhibitory efficacy: H460 cells
[6] = 4uM, given as fraction, Repeat 1-3

COCCOc1cc2ncnc(Nc3cccc(-c4cn(CCc5ccccc5)nn4)c3)c2cc1OCCOC [e20, [6,7-Bis-(2-methoxy-ethoxy)-quinazolin-4-yl]-[3-(1-phenethyl-1H-[1,2,3]triazol-4-yl)-phenyl]-amine]
IC50 [1]: > 100 µM
Inhibitory efficacy ([2]; H1975 cells, 16uM, given as fraction, Repeat 1-3): 0.06216 and 0.05712
IC50 ([2]; Homo sapiens, NCI-H1975, 48 h, read-out: IC50 (μM) H1975, CCK-8, 48 h, average ± SD of three independent experiments): > 100 µM
inhibition at 16 µM ([2]; Homo sapiens, NCI-H1975, read-out: Inhibitory efficacy, H1975 cells, 16uM, given as fraction, Repeat 1-3): 8.81%
Inhibitory efficacy ([3]; 2uM, given as fraction, Repeat 1-3): 0.2224 and 0.1702
Inhibitory efficacy [3, 6]: 0.2939 and 0.3309
Inhibitory efficacy ([3]; 8uM, given as fraction, Repeat 1-3): 0.2956 and 0.3275
Inhibitory efficacy ([3]; 16uM, given as fraction, Repeat 1-3): 0.2156 and 0.1736
IC50 ([3]; Homo sapiens, A549, 48 h, read-out: IC50 (μM) A549, CCK-8, 48 h, average ± SD of three independent experiments): > 100 µM
inhibition at 2 µM ([3]; Homo sapiens, A549, read-out: Inhibitory efficacy, A549 cells, 2uM, given as fraction, Repeat 1-3): 18.8%
inhibition at 4 µM ([3]; Homo sapiens, A549, read-out: Inhibitory efficacy, A549 cells, 4uM, given as fraction, Repeat 1-3): 29.1%
inhibition at 8 µM ([3]; Homo sapiens, A549, read-out: Inhibitory efficacy, A549 cells, 8uM, given as fraction, Repeat 1-3): 22.2%
inhibition at 16 µM ([3]; Homo sapiens, A549, read-out: Inhibitory efficacy, A549 cells, 16uM, given as fraction, Repeat 1-3): 20.2%
melting point: 109 to 112 °C
IC50 ([4]; IC50 (μM) EGFR, ELISA, 3 μmol/L ATP): 0.28 µM
inhibition at 100 fM ([4]; concentration 0.0001 nM (reference for normalisation), one value per replicate column): 0%
inhibition at 30 pM ([4]; concentration 0.03 nM, one value per replicate column): 3.3%
Inhibition ([4]; concentration 0.03 nM, one value per replicate column, 3e-05 µM): 3.99
inhibition at 0.0003 µM ([4]; concentration 0.3 nM, one value per replicate column): 21.7%
Inhibition ([4]; concentration 0.3 nM, one value per replicate column, 0.0003 µM): 27.0358
inhibition at 0.003 µM ([4]; concentration 3 nM, one value per replicate column): 38.5%
Inhibition ([4]; concentration 3 nM, one value per replicate column, 0.003 µM): 33.7948
inhibition at 0.03 µM ([4]; concentration 30 nM, one value per replicate column): 40.5%
Inhibition ([4]; concentration 30 nM, one value per replicate column, 0.03 µM): 35.1792
inhibition at 0.3 µM ([4]; concentration 300 nM, one value per replicate column): 42.1%
Inhibition ([4]; concentration 300 nM, one value per replicate column, 0.3 µM): 40.798
inhibition at 3 µM ([4]; concentration 3000 nM, one value per replicate column): 55.8%
Inhibition ([4]; concentration 3000 nM, one value per replicate column, 3 µM): 51.9544
inhibition at 30 µM ([4]; concentration 30000 nM, one value per replicate column): 88.6%
Inhibition ([4]; concentration 30000 nM, one value per replicate column, 30 µM): 85.4235
A450 ([4]; concentration 0.0001 nM): 1.605 and 1.533
A450 ([4]; concentration 0.03 nM): 1.562 and 1.484
A450 ([4]; concentration 0.3 nM): 1.323 and 1.201
A450 ([4]; concentration 3 nM): 1.104 and 1.118
A450 ([4]; concentration 30 nM): 1.078 and 1.101
A450 ([4]; concentration 300 nM): 1.057 and 1.032
A450 ([4]; concentration 3000 nM): 0.879 and 0.895
A450 ([4]; concentration 30000 nM): 0.452 and 0.484
Inhibitory efficacy ([5]; 1uM, given as fraction, Repeat 1-3): 0.1948 and 0.1895
Inhibitory efficacy [5, 6]: 0.1258 and 0.07143
IC50 ([5]; Homo sapiens, NCI-H460, 48 h, read-out: IC50 (μM) H460, CCK-8, 48 h, average ± SD of three independent experiments): > 100 µM
inhibition at 1 µM ([5]; Homo sapiens, NCI-H460, read-out: Inhibitory efficacy, H460 cells, 1uM, given as fraction, Repeat 1-3): 17.3%
inhibition at 4 µM ([5]; Homo sapiens, NCI-H460, read-out: Inhibitory efficacy, H460 cells, 4uM, given as fraction, Repeat 1-3): 9.76%
